Experiments:
[1] = target: T1, capsaicin receptor (rat Gasser ganglia) (Rattus norvegicus, UniProt O35433); assay: biochemical; type: binding; details: rat Gasser ganglia
T1 construct: from tissue; host or cells: Gasser ganglia of female Sprague-Dawley rats
Experimental: Membrane preparations are obtained from the DRG and Gasser ganglia of female Sprague-Dawley rats (250-300 g); animals are sacrificed by decapitation under ether anesthesia, the ganglia removed and collected into ice-cold disrupting buffer (5 mM KCl, 5.8 mM NaCl, 2 mM MgCl2, 12 mM glucose, 137 mM sucrose, 10 mM HEPES, 5 mM DTT, 2 mM EGTA, pH 7.4). After homogenization with the aid of a Polytron tissue homogenizer, samples are filtered over surgical gauze and then washed twice with the same buffer and stored at -70° C. Particulate fractions are obtained from other rat neural tissues (cerebellum, spinal cord, preoptic region, striatum, substantia nigra) and from DRG of pigs (Mt. Airy Locker Co., Mt. Airy, MD), sheep, cows (kindly provided by Dr. Solomon, USDA, Beltsville, MD), and chickens (Truslow Farms, Chesterton, MD) by a similar procedure.
The binding assays are carried out in a volume of 250 ul, containing assay buffer (same as the disrupting buffer but omitting DTT and EGTA and including 0.75 mM CaCl2), 26-30 ug of membrane protein and 0.25 mg/ml bovine serum albumin. […] Tubes are kept on ice while the additions are made. The assay mixture is incubated for 10 min at 37° C.; it is then cooled on ice. 150 ul of the mixture is pipetted onto Whatman GF/C or GF/F glass fiber filters presoaked with 10 mg/ml bovine serum albumin in 20 mM Tris-Cl (pH 7.4) and filtered immediately. An aliquot of 50 ul of the mixture is removed to determine total radioactivity. The filters are washed with 100 ml of ice-cold 20 mM Tris-Cl, pH 7 4, containing 0.1 mg/ml bovine serum albumin, and the bound radioactivity is determined by scintillation counting. Non-specific binding is determined in the presence of 100-1000 nM non-radioactive RTX.
Binding data from saturation experiments using increasing concentrations of hot ligand are analyzed using the collection of computer programs described by McPherson (McPherson, G.A., Analysis of radioligand binding experiments: a collection of computer programs for the IBM PC, J.Pharmacol.Methods, 14 (1985) 213-228).
Scatchard and Hill transformations are performed by the Equilibrium Binding Data Analysis program referred to as EBDA. Data are further analyzed by the curvilinear regression program LIGAND (Munson, R.J. and Rodbard, D., LIGAND: a versatile computerized approach for characterization of ligand-binding systems, Anal.Biochem, 107 (1980) 220-239).
RTX binding is also analyzed in the presence of a fixed, low (60 pM or 300 pM) concentration of [^3 H]RTX and increasing concentrations of non-radioactive RTX or other ligand. […] The Ki value for RTX is calculated from the relationship Ki =ID50 -L; the Ki values for other ligands are calculated from the general form of the equation (Cheng, Y.C. and Prusoff, W.H., Relation between the inhibition constant (Ki) and the concentration of inhibitor which causes 50 per cent inhibition (I50) of an enzymatic reaction, Biochem. Pharmacol., 22 (1973) 3099-3108) Ki =IC50 /(1+L/Kd) where L=concentration of labelled ligand and Kd =dissociation constant of radioactive ligand as determined in the saturation experiments using variable concentrations of hot ligand. Comparison of the quality of fit using single and multiple site competition models is performed by the LIGAND program.
Gasser ganglia represents the […] homolog of the dorsal root ganglia.

[2] = test system: capsaicin receptor (sheep DRG); assay: [^3H]RTX binding to sheep DRG membranes; details: DRG from sheep
[3] = test system: capsaicin receptor (cow DRG); assay: [^3H]RTX binding to cow DRG membranes; details: DRG from cows
substantia nigra = assay: [^3H]RTX binding to rat substantia nigra
Experimental: Membrane preparations are obtained from the DRG and Gasser ganglia of female Sprague-Dawley rats (250-300 g); animals are sacrificed by decapitation under ether anesthesia, the ganglia removed and collected into ice-cold disrupting buffer (5 mM KCl, 5.8 mM NaCl, 2 mM MgCl2, 12 mM glucose, 137 mM sucrose, 10 mM HEPES, 5 mM DTT, 2 mM EGTA, pH 7.4). After homogenization with the aid of a Polytron tissue homogenizer, samples are filtered over surgical gauze and then washed twice with the same buffer and stored at -70° C. […]
(§1) The binding assays are carried out in a volume of 250 ul, containing assay buffer (same as the disrupting buffer but omitting DTT and EGTA and including 0.75 mM CaCl2), 26-30 ug of membrane protein and 0.25 mg/ml bovine serum albumin. […] An aliquot of 50 ul of the mixture is removed to determine total radioactivity. The filters are washed with 100 ml of ice-cold 20 mM Tris-Cl, pH 7 4, containing 0.1 mg/ml bovine serum albumin, and the bound radioactivity is determined by scintillation counting. Non-specific binding is determined in the presence of 100-1000 nM non-radioactive RTX. […]

[4] = test system: capsaicin receptor (porcine DRG subcellular fractions); type: binding, pig
Experimental: Subcellular fractions are prepared by a modification of the method of Bastiaensen et al. (Bastiaensen, E., Miserez, B. and De Potter, W., Subcellular fractionation of bovine ganglion stellatum: co-storage of noradrenaline, Met-enkephalin and neuropeptide Y in large `dense-cored` vesicles, Brain Res., 442 (1988) 124-130. ) Briefly: DRG are dissected free from capsule, cut into small pieces with scissors, and then homogenized with a teflon pestle (20 strokes) in ice-cold 0.25 M sucrose/ 20 mM Tris-Cl (pH 7.4) buffer. The homogenate is filtered over surgical gauze; it is then centrifuged for 10 min at 2000 gmax, giving a pellet P1, and again at 10 000 gmax for 15 min giving a pellet P2. The P1 and P2 pellets are saved as nuclear and mitochondrial fractions for binding studies. […]
as §1

T1 sequence (O35433 whole entry): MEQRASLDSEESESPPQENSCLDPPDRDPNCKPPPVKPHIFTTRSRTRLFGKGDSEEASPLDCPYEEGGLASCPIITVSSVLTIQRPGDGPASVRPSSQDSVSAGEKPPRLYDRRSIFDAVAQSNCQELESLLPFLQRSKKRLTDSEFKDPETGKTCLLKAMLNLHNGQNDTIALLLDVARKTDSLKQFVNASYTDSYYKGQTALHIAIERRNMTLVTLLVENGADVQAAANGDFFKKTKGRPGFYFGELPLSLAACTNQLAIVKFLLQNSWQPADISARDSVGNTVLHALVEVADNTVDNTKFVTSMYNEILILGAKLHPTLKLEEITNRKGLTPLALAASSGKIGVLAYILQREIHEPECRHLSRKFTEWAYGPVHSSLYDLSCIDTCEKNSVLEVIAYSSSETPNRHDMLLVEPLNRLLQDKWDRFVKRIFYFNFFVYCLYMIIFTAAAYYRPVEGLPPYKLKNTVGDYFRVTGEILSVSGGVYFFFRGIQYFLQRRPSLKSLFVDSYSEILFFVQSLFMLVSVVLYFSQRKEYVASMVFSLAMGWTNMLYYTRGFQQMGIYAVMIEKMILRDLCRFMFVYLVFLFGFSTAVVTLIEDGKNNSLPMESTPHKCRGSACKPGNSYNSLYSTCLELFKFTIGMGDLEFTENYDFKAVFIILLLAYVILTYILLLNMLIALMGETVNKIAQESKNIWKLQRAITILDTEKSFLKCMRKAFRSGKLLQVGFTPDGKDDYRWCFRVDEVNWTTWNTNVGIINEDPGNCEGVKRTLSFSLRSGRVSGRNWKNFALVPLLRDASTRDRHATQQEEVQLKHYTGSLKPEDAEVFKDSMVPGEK

SMILES: C=C(C)[C@]12C[C@@H](C)[C@@]34O[C@](Cc5ccccc5)(O[C@@H]1[C@@H]3C=C(COC(=O)Cc1ccc(O)c(OC)c1)C[C@]1(O)C(=O)C(C)=C[C@@H]41)O2 [[^3 H]RTX, [^3 H]resiniferatoxin]
- Hill coefficient [1]: 0.87
- Bmax ([1]; 3 separate experiments, LIGAND): 90 fmol/mg
- Kd ([1]; 3 separate experiments, LIGAND): 130 pM
- specific binding [2]: Specific binding is observed
- specific binding [3]: Specific binding is observed
- detection of [^3H]RTX binding (substantia nigra): very difficult
- specific [^3H]RTX binding, microsomal/plasma membrane fraction over mitochondrial fraction ([4]; fixed 300 pM [^3H]RTX, preliminary): 5 fold
- specific [^3H]RTX binding in the nuclear pellet ([4]; nuclear pellet): No specific [^3 H]RTX binding

— patent US5232684A, “Labelled resiniferatoxin, compositions thereof, and methods for using the same” (priority 1990, dated 1993)
